Laboratory results reported in patent US8865622B2, “Use of active ingredients for controlling nematodes in nematode-resistant crops” (priority 2010, dated 2014).

B1: AXN2: genetically modified Jack soybean variety known to produce a nematicidal protein (gene axn2, Table 1) (protein)
chain: MASAANAGQLGNLPGVTSMGMGYDVNGLYASPESLLGQPLFDFGGELDSIEIEGRSYTFPRSMHVHTYFHSDFKQDVSKEIEEYREKMSQHVGVSGRYKLFSASLSVDFTTTDQQLTEITYSSTREAHVLWYISLPGAATLRSMLRRDFRDDLNNPNMPAMELFKRYGPYYISEAAVGGRLDYSAASKTLKMDSSQSLSTTAEMSYKALVGEIKIEHGSEMEKQVNSFRSNSTIRLTATGGKPGMTDRILHGPDSQQAFSQWAESLLDYATLMDFSTESLQPIWALADKPERRVELEDAFPEFMKQSQQSIPKVDKVLLMDARPPMVKAGEDSGSGASEDLAVFNPSTSNGYKMVGQFGQRNHASVADGHAPIFKDLFDLGVLKAPVGWQRVWDDAGSGKSKDYACWRAIPPQGYRALGDVMMLATSGYNPPNLPDYVCVHQSLCADVQTLQNRVWWDKGTGARKDVSLWQPGAAGAVASSCFAGVPNYNNPPNSGDIERLRGSIACVKTSAIASM
modifications: AXMI-205(trun20)
B2: AXMI031: genetically modified Jack soybean variety known to produce a nematicidal protein (gene axmi031, Table 1) (protein, listed as Bacillus thuringiensis)
chain: MNMNNTKLNARALPSFIDYFNGIYGFATGIKDIMNMIFKTDTGGDLTLDEILKNQQLLNEISGKLDGVNGSLNDLIAQGNLNTELSKEILKIANEQNQVLNDVNNKLDAINTMLNIYLPKITSMLSDVMKQNYALSLQIEYLSRQLQEISDKLDVINLNVLINSTLTEITPSYQRIKYVNEKFDKLTFATESTLRAKQGIFNEDSFDNNTLENLTDLAELAKSITKNDVDSFEFYLHTFHDVLIGNNLFGRSALKTASELITKDEIKTSGSEIGKVYSFLIVLTSLQAKAFLTLTTCRKLLGLSDIDYTSIMNEHLNNEKNEFRDNILPALSNKFSNPSYAKTIGSDNYAKVILESEPGYALVGFEIINDPIPVLKAYKAKLKQNYQVDNQSLSEIVYLDIDKLFCPENSEQKYYTKNLTFPDGYVITKITFEKKLNNLIYEATANFYDPSTGDIDLNKKQVESTFPQTDYITMDIGDDDGIYMPLGVISETFLTPINSFGLEVDAKSKTLTLKCKSYLREYLLESDLKNKETGLIAPPNVFISNVVKNWDIEEDSLEPWVANNKNAYVDNTGGIERSKALFTQGDGEFSQFIGDKLKPNTDYIIQYTVKGKPAIYLKNKSTGYITYEDTNGNSEEFQTIAVKFTSETDLSQTHLVFKSQNGYEAWGDNFIILEAKLFETPESPELIKFNDWERFGTTYITGNELRIDHSRGGYFRQSLNIDSYSTYDLSFSFSGLWAKVIVKNSRGVVLFEKVKNNGSSYEDISESFTTASNKDGFFIELTAERTSSTFHSFRDISIKEKIE

Experiments:
[1] = tested on: SCN (inbred colony OP50, able to overcome PI 88788 resistance); assay: SCN cyst count on soybean plants grown from treated seed, pot test in germination chamber; assay type: in vivo; conditions: for reduction of SCN populations: nontransgenic Jack plants, cysts counted two months after planting; for percent reduction of average number of cysts compared to Jack: base (color/coating) treatment only, trait effect
Method: (§1) Two tests were planted with Jack (an SCN resistant soybean variety with PI 88788 resistance) and two genetically modified Jack varieties (AXN2 and AXMI031) known to produce a nematicidal protein. The seed were treated with a color/coating base or the same base plus one of two different rates of fluopyram (experiment 1 used 0.075 mg fluopyram/seed and experiment 2 used 0.15 mg fluopyram/seed). The SCN used to inoculate both tests were collected from an inbred colony (OP50) with the ability to overcome PI 88788 resistance.
(§2) Tests were conducted as non-randomized blocks with a minimum of 10 replicates. Seed were planted in individual 4″ clay pots with coarse sand and inoculated with approximately 20,000 OP50 juveniles in ten equal inoculations beginning at planting and again approximately every third day. Plants were maintained in a germination chamber. Blocks were rotated approximately every third day to minimize potential influence of environmental variance. Two months after planting, plants were harvested and cysts were collected and counted to evaluate the efficacy of the nematicide and traits, both individually and in combination with each other.

[2] = tested on: Jack soybean plants (nontransgenic, AXN2, AXMI031); assay: Plant height of soybean plants in the SCN pot test; assay type: in vivo
Method: as §1, §2

Molecule | reduction of SCN populations ([1]; first experiment, 0.075 mg fluopyram/seed) | approximate reduction (SCN) provided by fluopyram ([1]; high rate (0.15 mg/seed), transgenic Axmi031 plants) | approximate reduction (SCN) provided by fluopyram ([1]; high rate (0.15 mg/seed), transgenic Axn2 plants) | approximate reduction (SCN) provided by fluopyram ([1]; low rate (0.075 mg/seed), transgenic Axmi031 plants) | approximate reduction (SCN) provided by fluopyram ([1]; low rate (0.075 mg/seed), transgenic Axn2 plants) | reduction of SCN populations ([1]; second experiment, 0.15 mg fluopyram/seed) | effect on average plant height ([2]; both genetically modified varieties (Axn2, Axmi031), both experiments (0.075 and 0.15 mg/seed)) | effect on average plant height ([2]; nontransgenic control Jack plants, both experiments) | percent reduction of average number of cysts compared to Jack ([1]; first experiment) | percent reduction of average number of cysts compared to Jack ([1]; second experiment)
O=C(NCCc1ncc(C(F)(F)F)cc1Cl)c1ccccc1C(F)(F)F [fluopyram, N-{2-[3-chloro-5-(trifluoromethyl)-2-pridinyl]ethyl}-2-(trifluoromethyl)benzamide] | 26% | ~40% | ~40% | ~20% | ~20% | 43% | increased average plant height | not having an effect | – | –
B1 | – | – | – | – | – | – | – | – | 20% | 43%
B2 | – | – | – | – | – | – | – | – | 92% | 88%
